Data as given in patent US4629733A, “Indolinones and pharmaceutical compositions containing same” (Dr. Karl Thomae GmbH, priority 1980, dated 1986).

How the values were obtained:
[1] = target: phosphodiesterase (PDE); test: PDE inhibition; assay type: biochemical; conditions: 10,000×g supernatant of human blood platelets, 1 μmol/liter 3H-cAMP, pH 7.4, 15 minutes at 37° C.
Procedure: cAMP is hydrolysed to AMP by phosphodiesterase (PDE) from various sources, including blood platelets. This hydrolysis is inhibited by PDE inhibitors according to the concentration.
The phosphodiesterase used is the 10,000×g supernatant of human blood platelets which have been frozen with water and thawed out again. An amount of 0.3 ml of a mixture which contains 0.1 mol/liter of tri-hydroxy-aminomethane (pH 7.4), 3 mmol/liter of magnesium chloride, 1 mmol/liter of AMP, 1 μmol/liter of ^3 H-cAMP (specific activity about 10 MBq/μmol), PDE as well as the substance to be tested, and water for the control is incubated for 15 minutes at 37° C. The incubation is stopped by the addition of 0.5 ml of zinc sulphate (0.266 mol/liter) and 0.5 ml of barium hydroxide (0.226 mol/liter), the precipitate is centrifuged, and the activity remaining in the supernatant of the unreacted ^3 H-cAMP is determined. From a comparison of the substance preparations and the control preparations, the concentration for a 50% inhibiting activity (IC50) of the respective substance was calculated.

[2] = tested on: mice; test: Acute toxicity; assay type: in vivo; conditions: observation time 14 days
Procedure: The acute toxicity of the substances to be tested was determined in groups of 5 mice each each after peroral administration of a dose of 250 mg/kg or 1000 mg/kg (observation time: 14 days).

[3] = tested on: conscious mice; test: Determination of the prolongation of bleeding time; assay type: in vivo; conditions: Mus musculus, po, 1 h, 10 mg/kg orally, after one hour, versus control group
Procedure: To measure the bleeding time, 10 mg/kg of the test compound is administered orally to conscious mice. After one hour 0.5 mm of the tip of the tail of the mouse is cut off, and the droplets of blood are gently removed with filter paper every 30 seconds. The number of drops of blood give a measure of the bleeding time (5 animals/experiment). The values in the following table represent the prolongation as a percentage as compared to a control group: […]

With `CC1(C)C(=O)Nc2ccc(OCCCC[S+]([O-])c3ccccc3)cc21` (stereo not drawn) [A, 3,3-Dimethyl-5-(4-phenylsulfinyl-butoxy)-indolinone-2] the IC50 [1] was 2.5 µM and the “Acute toxicity per os (animals died)” value ([2]; 250 mg/kg peroral) was 0 out of 5.
In the case of `CC1(C)C(=O)Nc2ccc(OCCCC[S+]([O-])c3ccc(Cl)c(Cl)c3)cc21` (stereo not drawn) [B, 3,3-Dimethyl-5-[4-(3,4-dichlorophenylsulfinyl)-butoxy]-indolinone-2], the change in vivo at 10 mg/kg [3] is reported as 59%, the IC50 [1] is reported as 0.3 µM and the “Acute toxicity per os (animals died)” value ([2]; 1000 mg/kg peroral) is reported as 0 out of 6.
With `CC1(C)C(=O)Nc2ccc(OCCCCSc3ccc(C4CCCCC4)cc3)cc21` [C, 3,3-Dimethyl-5-[4-(4-cyclohexylphenylmercapto)-butoxy]-indolinone-2] the IC50 [1] was 2.5 µM and the “Acute toxicity per os (animals died)” value ([2]; 1000 mg/kg peroral) was 0 out of 6.
For `CC1(C)C(=O)Nc2ccc(OCCCC[S+]([O-])c3ccc(-c4ccccc4F)cc3)cc21` (stereo not drawn) [D, 3,3-Dimethyl-5-[4-(2'-fluoro-4-biphenylylsulfinyl)-butoxy]-indolinone-2], the change in vivo at 10 mg/kg [3] was over 249%, the IC50 [1] was 0.027 µM and the “Acute toxicity per os (animals died)” value ([2]; 1000 mg/kg peroral) was 0 out of 6.
With `COc1ccc([S+]([O-])CCCCOc2ccc3c(c2)C(C)(C)C(=O)N3)cc1OC` (stereo not drawn) [E, 3,3-Dimethyl-5-[4-(3,4-dimethoxyphenylsulfinyl)-butoxy]-indolinone-2] the change in vivo at 10 mg/kg [3] was over 198%, the IC50 [1] was 0.54 µM and the “Acute toxicity per os (animals died)” value ([2]; 1000 mg/kg peroral) was 0 out of 6.
With `COc1cc2ccc(S(=O)(=O)CCCCOc3ccc4c(c3)C(C)(C)C(=O)N4)cc2cc1OC` [F, 3,3-Dimethyl-5-[4-(6,7-dimethoxy-naphthyl-(2)-sulfonyl)butoxy]-indolinone-2] the change in vivo at 10 mg/kg [3] was over 232%, the IC50 [1] was 0.24 µM and the “Acute toxicity per os (animals died)” value ([2]; 1000 mg/kg peroral) was 0 out of 6.
`CC(C)(C)c1cc([S+]([O-])CCCCOc2ccc3c(c2)C(C)(C)C(=O)N3)cc(C(C)(C)C)c1O` (stereo not drawn) [G, 3,3-Dimethyl-5-[4-(3,5-di-tert.butyl-4-hydroxy-phenylsulfinyl)-butoxy]-indolinone-2] was tested, and the change in vivo at 10 mg/kg [3] was 154%, the IC50 [1] was 0.07 µM and the “Acute toxicity per os (animals died)” value ([2]; 1000 mg/kg peroral) was 0 out of 6.
For `CC(C)(C)c1cc(S(=O)(=O)CCCCOc2ccc3c(c2)C(C)(C)C(=O)N3)cc(C(C)(C)C)c1O` [H, 3,3-Dimethyl-5-[4-(3,5-di-tert.butyl-4-hydroxy-phenylsulfonyl)-butoxy]-indolinone-2], the change in vivo at 10 mg/kg [3] was 149%, the IC50 [1] was 0.059 µM and the “Acute toxicity per os (animals died)” value ([2]; 1000 mg/kg peroral) was 0 out of 6.
For `COc1ccc([S+]([O-])CCCCOc2ccc3c(c2)C(C)(C)C(=O)N3)cc1` (stereo not drawn) [I, 3,3-Dimethyl-5-[4-(4-methoxyphenyl-sulfinyl)-butoxy]-indolinone-2], the change in vivo at 10 mg/kg [3] was over 214%, the IC50 [1] was 0.5 µM and the “Acute toxicity per os (animals died)” value ([2]; 1000 mg/kg peroral) was 0 out of 6.
With `CC(C)(C)c1ccc([S+]([O-])CCCCOc2ccc3c(c2)C(C)(C)C(=O)N3)cc1` (stereo not drawn) [K, 3,3-Dimethyl-5-[4-(4-tert.butyl-phenyl-sulfinyl)-butoxy]-indolinone-2] the change in vivo at 10 mg/kg [3] was over 285%, the IC50 [1] was 0.27 µM and the “Acute toxicity per os (animals died)” value ([2]; 1000 mg/kg peroral) was 0 out of 6.
For `COc1cc2ccc([S+]([O-])CCCCOc3ccc4c(c3)C(C)(C)C(=O)N4)cc2cc1OC` (stereo not drawn) [L, 3,3-Dimethyl-5-[4-(6,7-dimethoxy-naphthyl-(2)-sulfinyl)butoxy]-indolinone-2], the change in vivo at 10 mg/kg [3] was 102%, the IC50 [1] was 0.24 µM and the “Acute toxicity per os (animals died)” value ([2]; 1000 mg/kg peroral) was 0 out of 6.
`CC1(C)C(=O)Nc2ccc(OCCCCSc3cc(Cl)c(O)c(Cl)c3)cc21` [M, 3,3-Dimethyl-5-[4-(3,5-dichloro-4-hydroxy-phenyl-mercapto)-butoxy]-indolinone-2] was tested, and the change in vivo at 10 mg/kg [3] was 140% and the “Acute toxicity per os (animals died)” value ([2]; 1000 mg/kg peroral) was 0 out of 6.
`CC1(C)C(=O)Nc2ccc(OCCCC[S+]([O-])c3cc(Br)c(N)c(Br)c3)cc21` (stereo not drawn) [N, 3,3-Dimethyl-5-[4-(3,5-dibromo-4-amino-phenyl-sulfinyl)butoxy]-indolinone-2] was tested, and the change in vivo at 10 mg/kg [3] was over 254%, the IC50 [1] was 0.11 µM and the “Acute toxicity per os (animals died)” value ([2]; 1000 mg/kg peroral) was 0 out of 6.
With `CC1(C)C(=O)Nc2ccc(OCCCC[S+]([O-])c3ccc4ccccc4c3)cc21` (stereo not drawn) [O, 3,3-Dimethyl-5-[4-(naphthyl-(2)-sulfinyl)-butoxy]-indolinone-2] the change in vivo at 10 mg/kg [3] was 127%, the IC50 [1] was 0.11 µM and the “Acute toxicity per os (animals died)” value ([2]; 1000 mg/kg peroral) was 0 out of 6.
In the case of `CC1(C)C(=O)Nc2ccc(OCCCC[S+]([O-])c3ccc(Cl)cc3)cc21` (stereo not drawn) [P, 3,3-Dimethyl-5-[4-(4-chlorophenylsulfinyl)-butoxy]-indolinone-2], the change in vivo at 10 mg/kg [3] is reported as 114%, the IC50 [1] is reported as 0.36 µM and the “Acute toxicity per os (animals died)” value ([2]; 1000 mg/kg peroral) is reported as 0 out of 6.
`CC1(C)C(=O)Nc2ccc(OCCCCC[S+]([O-])c3ccc(C4CCCCC4)cc3)cc21` (stereo not drawn) [Q, 3,3-Dimethyl-5-[5-(4-cyclohexyl-phenyl-sulfinyl)-pentoxy]-indolinone-2] was tested, and the change in vivo at 10 mg/kg [3] was over 174%, the IC50 [1] was 0.38 µM and the “Acute toxicity per os (animals died)” value ([2]; 1000 mg/kg peroral) was 0 out of 6.
In the case of `CC(C)(C)c1ccc(S(=O)(=O)CCCCOc2ccc3c(c2)C(C)(C)C(=O)N3)cc1` [R, 3,3-Dimethyl-5-[4-(4-tert.butyl-phenyl-sulfonyl)-butoxy]-indolinone-2], the change in vivo at 10 mg/kg [3] is reported as over 242%, the IC50 [1] is reported as 0.24 µM and the “Acute toxicity per os (animals died)” value ([2]; 1000 mg/kg peroral) is reported as 0 out of 6.
`CC1(C)C(=O)Nc2ccc(OCCCC[S+]([O-])c3ccc(C4CCCCC4)cc3)cc21` (stereo not drawn) [S, 3,3-Dimethyl-5-[4-(4-cyclohexyl-phenyl-sulfinyl)-butoxy]-indolinone-2] was tested, and the change in vivo at 10 mg/kg [3] was 104%, the IC50 [1] was 0.058 µM and the “Acute toxicity per os (animals died)” value ([2]; 1000 mg/kg peroral) was 0 out of 6.
